What all share (assay type): physicochemical
Data set [1] can be described thus: Fluorescence lifetime, time-correlated single photon counting (excitation 500 nm, detection 550 nm). The note with it: excited at 500 nm, detection at 550 nm. How it is done: FIG. 2 is a plot showing the fluorescence lifetimes of certain dyes according to the invention. Fluorescence lifetimes of a range of dyes were determined by a time-correlated single photon counting technique using an Edinburgh Instruments FL900 CDT Time-Resolved Fluorometer. Samples were excited at 500 nm using a hydrogen-filled flashlamp. Detection was at 550 nm.

Data set [2] is described as follows: Fluorescence of the dinitro dye in solvents. Conditions: in DMF, DMSO and methanol.
Data set [3] can be described thus: Fluorescence lifetimes of dye and its ovalbumin conjugate in PBS. How it is done:
The fluorescence lifetimes of 6-{7,14-dioxo-2,9-disulpho-7,14-dihydro-12H-quino[2,3-b]acridin-5-yl}hexanoic acid and its conjugate with ovalbumin (Conjugate A) was determined in PBS.

Molecules are shown by their SMILES. Counter-ions that a name gives are not always drawn.

On to `CCCCCCn1c2ccccc2c(=O)c2cc3c(cc21)c(=O)c1cc(Br)ccc1n3CCCCCC` [2-Bromo-5,12-di-n-hexylquinacridone, 2-Bromo-5,12-dihexylquinacridone], for which the Lifetime in data set [1] (solvent CH2Cl2/MeOH) was determined as 20.4 nsec.

Take `CCOC(=O)CCCCCn1c2ccc([N+](=O)[O-])cc2c(=O)c2cc3c(cc21)c(=O)c1cc([N+](=O)[O-])ccc1n3CCCCCC(=O)OCC` [6-{2,9-Dinitro-12-(5-carboxypentyl)-7,14-dioxo-7,14-dihydro-12H-quino[2,3-b]acridin-5-yl}hexanoic acid, diethyl ester]: the Lifetime in data set [1] (solvent CH2Cl2) amounted to 17.0 nsec. Also, in data set [2], the Fluorescence result was “very weak or is non-fluorescent”.

In data set [1] (solvent EtOH), `CCOC(=O)CCCCCn1c2ccc(OC)cc2c(=O)c2cc3c(cc21)c(=O)c1cc(OC)ccc1n3CCCCCC(=O)OCC` [6-{2,9-Dimethoxy-12-(5-carboxypentyl)-7,14-dioxo-7,14-dihydro-12H-quino[2,3-b]acridin-5-yl}hexanoic acid, diethyl ester] gave a Lifetime of 14.0 nsec.

Compound `CCn1c2ccc(S(=O)(=O)O)cc2c(=O)c2cc3c(cc21)c(=O)c1cc(S(=O)(=O)O)ccc1n3CCCCCC(=O)O` [6-{12-ethyl-7,14-dioxo-2,9-disulpho-7,14-dihydro-12H-quino[2,3-b]acridin-5-yl}hexanoic acid] yielded a Lifetime in data set [1] (solvent water) of 22.7 nsec.

In data set [1] (solvent MeOH), `CCOC(=O)CCCCCn1c2ccc(Cl)cc2c(=O)c2cc3c(cc21)c(=O)c1cc(Cl)ccc1n3CCCCCC(=O)OCC` [6-{2,9-Dichloro-12-(5-carboxypentyl)-7,14-dioxo-7,14-dihydro-12H-quino[2,3-b]acridin-5-yl}hexanoic acid, diethyl ester] had a Lifetime of 22.3 nsec.

For `O=C(O)CCCCCn1c2ccc(S(=O)(=O)O)cc2c(=O)c2cc3[nH]c4ccc(S(=O)(=O)O)cc4c(=O)c3cc21` [6-{7,14-Dioxo-2,9-disulpho-7,14-dihydro-12H-quino[2,3-b]acridin-5-yl}hexanoic acid], the Lifetime in data set [1] (solvent water) is reported as 20.1 nsec. In data set [3], the “Lifetime (nsec)” value amounted to 20.1 nsec.

`CCCCCCn1c2ccc(Br)cc2c(=O)c2cc3c(cc21)c(=O)c1cc(Br)ccc1n3CCCCCC` [2,9-Dibromo-5,12-di-n-hexylquinacridone, 2,9-dibromo-5,12-dihexylquinacridone] returned a Lifetime in data set [1] (solvent CH2Cl2/MeOH) of 16.9 nsec.

Compound `O=c1c2cc3[nH]c4c(S(=O)(=O)O)cc(S(=O)(=O)O)cc4c(=O)c3cc2[nH]c2c(S(=O)(=O)O)cc(S(=O)(=O)O)cc12` [Quinacridone-2,4,9,11-tetrasulphonic acid (tetra-potassium salt)] came in with a Lifetime in data set [1] (solvent water) of 22.1 nsec.

`CCOC(=O)CCCCCn1c2ccc(F)cc2c(=O)c2cc3c(cc21)c(=O)c1cc(F)ccc1n3CCCCCC(=O)OCC` [6-{2,9-Difluoro-12-(5-carboxypentyl)-7,14-dioxo-7,14-dihydro-12H-quino[2,3-b]acridin-5-yl}hexanoic acid, diethyl ester] returned a Lifetime in data set [1] (solvent MeOH) of 21.4 nsec.

In data set [1] (solvent DMSO), `O=c1c2ccccc2[nH]c2cc3c(=O)c4ccccc4[nH]c3cc12` [Quinacridone] displayed a Lifetime of 22 nsec.

Compound `CCCCCCn1c2ccccc2c(=O)c2cc3c(cc21)c(=O)c1ccccc1n3CCCCCC` [5,12-Di-n-hexylquinacridone, 5,12-Dihexylquinacridone] had a Lifetime in data set [1] (solvent CH2Cl2/MeOH) of 26.5 nsec.

Turning to `CCOC(=O)CCCCCn1c2ccc(Br)cc2c(=O)c2cc3c(cc21)c(=O)c1cc(Br)ccc1n3CCCCCC(=O)OCC` [6-{2,9-dibromo-12-(5-carboxypentyl)-7,14-dioxo-7,14-dihydro-12H-quino[2,3-b]acridin-5-yl}hexanoic acid, diethyl ester], the Lifetime in data set [1] (solvent water) came to 18.0 nsec.

As for `O=c1c2cc(S(=O)(=O)O)ccc2[nH]c2cc3c(=O)c4cc(S(=O)(=O)O)ccc4[nH]c3cc12` [2,9-Quinacridone disulphonic acid, Quinacridone-2,9-disulphonic acid, (di-potassium salt)], the Lifetime in data set [1] (solvent water) is recorded as 20.6 nsec.

In the case of `CCOC(=O)CCCCCn1c2ccc(C)cc2c(=O)c2cc3c(cc21)c(=O)c1cc(C)ccc1n3CCCCCC(=O)OCC` [6-{2,9-dimethyl-12-(5-carboxypentyl)-7,14-dioxo-7,14-dihydro-12H-quino[2,3-b]acridin-5-yl}hexanoic acid, diethyl ester], the Lifetime in data set [1] (solvent MeOH) is on record as 21.9 nsec.

Source of the values: patent US7335771B2, “Quinacridone derivatives as labelling reagents for fluorescence detection of biological materials” (GE Healthcare UK Limited, priority 2001, dated 2008).
